Assay results reported in PubChem BioAssay (NCI).
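Exposure lasted 48 hours, with cells grown in 96-well plates and compounds tested at five concentrations. TGI denotes the concentration required for complete inhibition of growth.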

Columns and labels:
Assay in all cases: NCI tumour cell line growth inhibition, 48 h
A498 renal = system: A498 renal
UO-31 renal = system: UO-31 renal
OVCAR-4 ovarian = system: OVCAR-4 ovarian
SK-OV-3 ovarian = system: SK-OV-3 ovarian
RXF-631 renal = system: RXF-631 renal
SNB-19 CNS = system: SNB-19 CNS
EKVX NSCLC = system: EKVX NSCLC
OVCAR-3 ovarian = system: OVCAR-3 ovarian
M14 melanoma = system: M14 melanoma
RPMI-8226 leukemia = system: RPMI-8226 leukemia
U251 CNS = system: U251 CNS
OVCAR-5 ovarian = system: OVCAR-5 ovarian
UACC-62 melanoma = system: UACC-62 melanoma
HCT-15 colon = system: HCT-15 colon
HL-60(TB) leukemia = system: HL-60(TB) leukemia
SNB-75 CNS = system: SNB-75 CNS
SW-620 colon = system: SW-620 colon
SF-268 CNS = system: SF-268 CNS
SN12C renal = system: SN12C renal
ACHN renal = system: ACHN renal
HOP-18 NSCLC = system: HOP-18 NSCLC
SK-MEL-28 melanoma = system: SK-MEL-28 melanoma
LOX IMVI melanoma = system: LOX IMVI melanoma
HOP-62 NSCLC = system: HOP-62 NSCLC
KM20L2 colon = system: KM20L2 colon
NCI-H226 lung = system: NCI-H226 lung
LXFL 529 NSCLC = system: LXFL 529 NSCLC
XF 498 CNS = system: XF 498 CNS
HCC-2998 colon = system: HCC-2998 colon
SF-295 CNS = system: SF-295 CNS
HCT-116 colon = system: HCT-116 colon
TK-10 renal = system: TK-10 renal
SF-539 CNS = system: SF-539 CNS
HT29 colon = system: HT29 colon
M19-MEL melanoma = system: M19-MEL melanoma
IGROV1 ovarian = system: IGROV1 ovarian
HOP-92 NSCLC = system: HOP-92 NSCLC
MALME-3M melanoma = system: MALME-3M melanoma
KM12 colon = system: KM12 colon
CCRF-CEM leukemia = system: CCRF-CEM leukemia
CAKI-1 renal = system: CAKI-1 renal
SR leukemia = system: SR leukemia
SK-MEL-5 melanoma = system: SK-MEL-5 melanoma
786-0 renal = system: 786-0 renal
DLD-1 colon = system: DLD-1 colon
K-562 leukemia = system: K-562 leukemia
MOLT-4 leukemia = system: MOLT-4 leukemia
DMS 114 small cell lung = system: DMS 114 small cell lung
NCI-H23 lung = system: NCI-H23 lung
A549 NSCLC = system: A549 NSCLC
UACC-257 melanoma = system: UACC-257 melanoma
NCI-H460 lung = system: NCI-H460 lung
COLO 205 colon = system: COLO 205 colon
NCI-H522 lung = system: NCI-H522 lung
DMS 273 small cell lung = system: DMS 273 small cell lung
SK-MEL-2 melanoma = system: SK-MEL-2 melanoma
OVCAR-8 ovarian = system: OVCAR-8 ovarian
SNB-78 CNS = system: SNB-78 CNS
P388/ADR leukemia = system: P388/ADR leukemia
RXF 393 renal = system: RXF 393 renal
PC-3 prostate = system: PC-3 prostate
SN12K1 renal = system: SN12K1 renal
BT-549 breast = system: BT-549 breast
T-47D breast = system: T-47D breast
MDA-MB-435 = system: MDA-MB-435
MCF7 breast = system: MCF7 breast
HS 578T breast = system: HS 578T breast
MDA-MB-231 breast = system: MDA-MB-231 breast
DU-145 prostate = system: DU-145 prostate
MDA-N = system: MDA-N
NCI/ADR-RES ovarian = system: NCI/ADR-RES ovarian

Q: Which TGI (A498 renal) does the source give for `O=C(O)COc1ccc(C(=O)/C(SS/C(C(=O)c2ccc(OCC(=O)O)c(Cl)c2Cl)=C2\C=C(c3ccccc3Cl)SS2)=C2/C=C(c3ccccc3Cl)SS2)c(Cl)c1Cl` here?
A: 88.7 µM

Q: What about the TGI (UO-31 renal) of the same compound?
A: 68.2 µM

Q: And the TGI (OVCAR-4 ovarian)?
A: 57.1 µM

Q: And the TGI (SK-OV-3 ovarian)?
A: > 100 µM

Q: What about the TGI (RXF-631 renal) of the same compound?
A: > 84.9 µM

Q: And the TGI (SNB-19 CNS)?
A: > 100 µM

Q: What about the TGI (EKVX NSCLC) of the same compound?
A: > 89300 nM

Q: What about the TGI (OVCAR-3 ovarian) of the same compound?
A: 53 µM

Q: What about the TGI (M14 melanoma) of the same compound?
A: > 68000 nM

Q: And the TGI (RPMI-8226 leukemia)?
A: 42.5 µM

Q: What about the TGI (U251 CNS) of the same compound?
A: 36.5 µM

Q: What about the TGI (OVCAR-5 ovarian) of the same compound?
A: > 100000 nM

Q: What about the TGI (UACC-62 melanoma) of the same compound?
A: 69.5 µM

Q: What about the TGI (HCT-15 colon) of the same compound?
A: > 54600 nM

Q: What about the TGI (HL-60(TB) leukemia) of the same compound?
A: 7.01 µM

Q: What about the TGI (SNB-75 CNS) of the same compound?
A: > 100000 nM

Q: And the TGI (SW-620 colon)?
A: > 56500 nM

Q: What about the TGI (SF-268 CNS) of the same compound?
A: > 88300 nM

Q: And the TGI (SN12C renal)?
A: > 100000 nM

Q: What about the TGI (ACHN renal) of the same compound?
A: > 68900 nM

Q: What about the TGI (HOP-18 NSCLC) of the same compound?
A: > 72.4 µM

Q: What about the TGI (SK-MEL-28 melanoma) of the same compound?
A: > 100000 nM

Q: What about the TGI (LOX IMVI melanoma) of the same compound?
A: 28.5 µM

Q: And the TGI (HOP-62 NSCLC)?
A: > 100 µM

Q: And the TGI (KM20L2 colon)?
A: > 100000 nM

Q: What about the TGI (NCI-H226 lung) of the same compound?
A: 47.3 µM

Q: And the TGI (LXFL 529 NSCLC)?
A: 19.9 µM

Q: And the TGI (XF 498 CNS)?
A: 50.4 µM

Q: And the TGI (HCC-2998 colon)?
A: > 100000 nM

Q: And the TGI (SF-295 CNS)?
A: > 100000 nM

Q: And the TGI (HCT-116 colon)?
A: > 58700 nM

Q: What about the TGI (TK-10 renal) of the same compound?
A: > 95700 nM

Q: And the TGI (SF-539 CNS)?
A: 17.2 µM

Q: What about the TGI (HT29 colon) of the same compound?
A: > 31600 nM

Q: And the TGI (M19-MEL melanoma)?
A: > 66600 nM

Q: And the TGI (IGROV1 ovarian)?
A: 63.2 µM

Q: And the TGI (HOP-92 NSCLC)?
A: 24.3 µM

Q: And the TGI (MALME-3M melanoma)?
A: > 100000 nM

Q: What about the TGI (KM12 colon) of the same compound?
A: > 71400 nM

Q: And the TGI (CCRF-CEM leukemia)?
A: 33.5 µM

Q: What about the TGI (CAKI-1 renal) of the same compound?
A: > 94700 nM

Q: And the TGI (SR leukemia)?
A: 6.91 µM

Q: What about the TGI (SK-MEL-5 melanoma) of the same compound?
A: 49 µM

Q: What about the TGI (786-0 renal) of the same compound?
A: 36.7 µM

Q: And the TGI (DLD-1 colon)?
A: > 65400 nM

Q: And the TGI (K-562 leukemia)?
A: > 49000 nM

Q: And the TGI (MOLT-4 leukemia)?
A: 53.6 µM

Q: And the TGI (DMS 114 small cell lung)?
A: 26.1 µM

Q: What about the TGI (NCI-H23 lung) of the same compound?
A: 60.2 µM

Q: And the TGI (A549 NSCLC)?
A: > 100 µM

Q: What about the TGI (UACC-257 melanoma) of the same compound?
A: > 83100 nM

Q: What about the TGI (NCI-H460 lung) of the same compound?
A: 52 µM

Q: And the TGI (COLO 205 colon)?
A: > 77100 nM

Q: And the TGI (NCI-H522 lung)?
A: 11.3 µM

Q: And the TGI (DMS 273 small cell lung)?
A: 56.9 µM

Q: What about the TGI (SK-MEL-2 melanoma) of the same compound?
A: 50 µM

Q: What about the TGI (OVCAR-8 ovarian) of the same compound?
A: > 100000 nM

Q: And the TGI (SNB-78 CNS)?
A: 52.5 µM

Q: `O=C1C(Br)=CC2(C=C1Br)CCNc1c(O)c3c4c(c12)=NCCC=4C=N3` was tested. Which TGI (P388/ADR leukemia) did it give?
A: 15.5 nM

Q: What about the TGI (A498 renal) of the same compound?
A: 3.56 µM

Q: What about the TGI (UO-31 renal) of the same compound?
A: 0.685 µM

Q: And the TGI (OVCAR-4 ovarian)?
A: 0.211 µM

Q: And the TGI (SK-OV-3 ovarian)?
A: 4.26 µM

Q: What about the TGI (SNB-19 CNS) of the same compound?
A: 3.97 µM

Q: And the TGI (EKVX NSCLC)?
A: 521 nM

Q: And the TGI (OVCAR-3 ovarian)?
A: 0.0835 µM

Q: What about the TGI (M14 melanoma) of the same compound?
A: 212 nM

Q: What about the TGI (RPMI-8226 leukemia) of the same compound?
A: 0.212 µM

Q: What about the TGI (U251 CNS) of the same compound?
A: 1.07 µM

Q: What about the TGI (OVCAR-5 ovarian) of the same compound?
A: 1280 nM

Q: What about the TGI (RXF 393 renal) of the same compound?
A: 217 nM

Q: What about the TGI (UACC-62 melanoma) of the same compound?
A: 0.233 µM

Q: And the TGI (HCT-15 colon)?
A: 197 nM

Q: And the TGI (SNB-75 CNS)?
A: 2160 nM

Q: And the TGI (SW-620 colon)?
A: 105 nM

Q: What about the TGI (SF-268 CNS) of the same compound?
A: 1180 nM

Q: And the TGI (SN12C renal)?
A: 344 nM

Q: And the TGI (ACHN renal)?
A: 307 nM

Q: What about the TGI (HOP-18 NSCLC) of the same compound?
A: 3.4 µM

Q: And the TGI (SK-MEL-28 melanoma)?
A: 416 nM

Q: And the TGI (PC-3 prostate)?
A: 993 nM

Q: What about the TGI (LOX IMVI melanoma) of the same compound?
A: 0.254 µM

Q: What about the TGI (HOP-62 NSCLC) of the same compound?
A: 5.34 µM

Q: And the TGI (KM20L2 colon)?
A: 413 nM

Q: What about the TGI (SN12K1 renal) of the same compound?
A: 426 nM

Q: What about the TGI (NCI-H226 lung) of the same compound?
A: 2.74 µM

Q: And the TGI (BT-549 breast)?
A: 507 nM

Q: What about the TGI (XF 498 CNS) of the same compound?
A: 0.399 µM

Q: And the TGI (HCC-2998 colon)?
A: 1210 nM

Q: And the TGI (SF-295 CNS)?
A: 2560 nM

Q: What about the TGI (T-47D breast) of the same compound?
A: 165 nM

Q: What about the TGI (MDA-MB-435) of the same compound?
A: 245 nM

Q: What about the TGI (HCT-116 colon) of the same compound?
A: 116 nM

Q: And the TGI (TK-10 renal)?
A: 792 nM

Q: And the TGI (SF-539 CNS)?
A: 0.557 µM

Q: What about the TGI (HT29 colon) of the same compound?
A: 168 nM

Q: And the TGI (M19-MEL melanoma)?
A: 65.6 nM

Q: And the TGI (IGROV1 ovarian)?
A: 0.42 µM

Q: And the TGI (HOP-92 NSCLC)?
A: 0.185 µM

Q: What about the TGI (MCF7 breast) of the same compound?
A: 74.5 nM

Q: What about the TGI (MALME-3M melanoma) of the same compound?
A: 94.6 nM

Q: What about the TGI (KM12 colon) of the same compound?
A: 1610 nM

Q: What about the TGI (CCRF-CEM leukemia) of the same compound?
A: 0.0734 µM

Q: And the TGI (CAKI-1 renal)?
A: 309 nM

Q: And the TGI (SR leukemia)?
A: 0.117 µM

Q: And the TGI (SK-MEL-5 melanoma)?
A: 0.266 µM

Q: And the TGI (786-0 renal)?
A: 0.272 µM

Q: And the TGI (DLD-1 colon)?
A: 79.8 nM

Q: And the TGI (K-562 leukemia)?
A: 92.1 nM

Q: And the TGI (MOLT-4 leukemia)?
A: 0.11 µM

Q: And the TGI (HS 578T breast)?
A: 3.87 µM

Q: What about the TGI (DMS 114 small cell lung) of the same compound?
A: 0.101 µM

Q: And the TGI (NCI-H23 lung)?
A: 0.287 µM

Q: And the TGI (MDA-MB-231 breast)?
A: 409 nM

Q: What about the TGI (A549 NSCLC) of the same compound?
A: 3.09 µM

Q: And the TGI (UACC-257 melanoma)?
A: 250 nM

Q: And the TGI (NCI-H460 lung)?
A: 1.64 µM

Q: And the TGI (DU-145 prostate)?
A: 1490 nM

Q: What about the TGI (MDA-N) of the same compound?
A: 245 nM

Q: What about the TGI (COLO 205 colon) of the same compound?
A: 28.9 nM

Q: And the TGI (NCI-H522 lung)?
A: 0.0542 µM

Q: What about the TGI (NCI/ADR-RES ovarian) of the same compound?
A: 580 nM

Q: And the TGI (DMS 273 small cell lung)?
A: 0.427 µM

Q: And the TGI (SK-MEL-2 melanoma)?
A: 0.428 µM

Q: What about the TGI (OVCAR-8 ovarian) of the same compound?
A: 511 nM

Q: And the TGI (SNB-78 CNS)?
A: 0.656 µM
